Measured values published in the supplement of paper PMC10307832.

Tests used:
Assay in all cases: relative viability (nuclei count vs DMSO), 5 days (fraction); higher = more cells survive
Quizartinib + Luminespib = compound: CC(C)(C)c1cc(NC(=O)Nc2ccc(-c3cn4c(n3)sc3cc(OCCN5CCOCC5)ccc34)cc2)no1 [Quizartinib] + CCNC(=O)c1noc(-c2cc(C(C)C)c(O)cc2O)c1-c1ccc(CN2CCOCC2)cc1 [Luminespib] (partner 0.01 µM)
Outline: (§1)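 Relative viability equals treated-well nuclei counts divided by vehicle-well nuclei counts. Counts came from 4× images of lung cancer cell lines grown in 1536-well plates for 5 days after pin-tool dosing on the day after seeding. Dosing used one drug alone or a fixed anchor-drug dose plus five library-drug doses (not always all listed) in √10 steps, and values are medians of duplicate plates.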

Quizartinib + Olaparib = compound: CC(C)(C)c1cc(NC(=O)Nc2ccc(-c3cn4c(n3)sc3cc(OCCN5CCOCC5)ccc34)cc2)no1 [Quizartinib] + O=C(c1cc(Cc2n[nH]c(=O)c3ccccc23)ccc1F)N1CCN(C(=O)C2CC2)CC1 [Olaparib] (partner 8 µM)
Outline: as §1

YM155 + Pictilisib = compound: COCC[n+]1c2c(n(Cc3cnccn3)c1C)C(=O)c1ccccc1C2=O [YM155] + CS(=O)(=O)N1CCN(Cc2cc3nc(-c4cccc5[nH]ncc45)nc(N4CCOCC4)c3s2)CC1 [Pictilisib] (partner 1 µM)
Outline: as §1

YM155 + AZD7762 = compound: COCC[n+]1c2c(n(Cc3cnccn3)c1C)C(=O)c1ccccc1C2=O [YM155] + NC(=O)Nc1cc(-c2cccc(F)c2)sc1C(=O)N[C@H]1CCCNC1 [AZD7762] (partner 0.2 µM)
Outline: as §1

Cell Line	relative viability (Quizartinib + Luminespib; first compound 0.001 µM)	relative viability (Quizartinib + Luminespib; first compound 0.003162 µM)	relative viability (Quizartinib + Luminespib; first compound 0.01 µM)	relative viability (Quizartinib + Luminespib; first compound 0.03162 µM)	relative viability (Quizartinib + Luminespib; first compound 0.1 µM)	relative viability (Quizartinib + Olaparib; first compound 0.001 µM)	relative viability (Quizartinib + Olaparib; first compound 0.003162 µM)	relative viability (Quizartinib + Olaparib; first compound 0.01 µM)	relative viability (Quizartinib + Olaparib; first compound 0.03162 µM)	relative viability (Quizartinib + Olaparib; first compound 0.1 µM)	relative viability (YM155 + Pictilisib; first compound 0.002 µM)	relative viability (YM155 + Pictilisib; first compound 0.006325 µM)	relative viability (YM155 + Pictilisib; first compound 0.02 µM)	relative viability (YM155 + Pictilisib; first compound 0.06325 µM)	relative viability (YM155 + AZD7762; first compound 0.002 µM)	relative viability (YM155 + AZD7762; first compound 0.006325 µM)	relative viability (YM155 + AZD7762; first compound 0.02 µM)	relative viability (YM155 + AZD7762; first compound 0.06325 µM)
201T	1.01	1.01	0.963	1.01	1.01	0.581	0.802	0.833	0.87	0.857	0.703	0.677	0.672	0.707	0.592	0.639	0.561	0.698
A549							0.327	0.378	0.257	0.439	0.511	0.454	0.378	0.0793				
A-427	1.03	0.777	0.988	0.506	1.01	0.736	0.719	0.687	0.586	0.711	0.592	0.736	0.802	0.705	0.741	0.793	0.752	0.312
ABC-1	0.67	0.445	0.504		0.498		0.807	0.845	0.911	0.956	0.637	0.594	0.341	0.197	0.66	0.84	0.47	0.195
BEN	0.421	0.33	0.307	0.384	0.214	1.11	1.02	0.991	0.841	1.02	0.53	0.644	0.627	0.578	0.538	0.625	0.769	0.692
CAL-12T	0.456	0.373	0.638	0.357	0.363	0.617	0.76	0.674	0.594	0.841		0.566	0.557	0.392	0.621	0.715	0.672	0.534
COR-L23	0.653	0.613	0.773	0.439	0.668	0.34	0.356	0.319	0.274	0.247	0.692	0.636	0.408	0.175				
COR-L 105	0.579	0.765	0.738	0.693	0.59	0.705	0.795	0.65		0.863	0.332	0.493	0.447	0.404				
Calu-6						0.604	0.549	0.512	0.492	0.64	0.879	0.605	0.169	0.13				
ChaGo-K-1	0.522	0.635	0.682	0.625	0.601		0.415	0.463	0.45	0.447	0.671	0.65	0.63	0.718	0.847	0.822	0.915	0.821
EBC-1						0.732	0.68	0.803	0.626	0.754	0.436	0.345	0.459	0.339				
EKVX	0.673	0.805	0.862	0.829	0.865		0.821	0.886	0.904	1.01	0.422	0.497	0.439	0.339	0.591	0.723	0.747	0.483
EMC-BAC-2	1.11	1.15	1.2		1.23	0.468	0.441	0.524		0.536	0.545	0.533	0.556	0.484	1.04	1.15	1.07	0.785
EPLC-272H	0.439	0.418	0.44	0.399	0.168	0.946	0.635	0.861	0.658	0.434	0.307	0.268	0.286	0.328	0.227	0.296	0.196	0.253
H3255	0.788	0.857	0.966	0.971	0.875	0.516	0.552	0.565	0.525	0.57	0.483	0.5	0.477	0.424	0.886	0.913	1.05	0.796
HARA		0.684	0.933	0.526	0.566	0.854	0.803	0.68	0.996	0.759	0.371	0.397	0.533	0.461		0.542	0.521	0.499
HCC-15		0.281	0.197	0.346	0.33	0.684	0.685	0.676	0.641	0.69	0.612	0.687	0.723	0.614	0.661	1.28	1.19	1.17
HCC-44		0.99	1.06	0.35	0.996	0.934	0.982	1.03	0.981	0.952	0.565	0.469	0.674	0.726	1.04	1.06	1.07	0.976
HCC-78						0.732	0.753	0.899	0.706	0.92	0.206	0.225	0.2	0.276	0.612	0.779	0.755	0.629

Cell Line	relative viability (Quizartinib + Luminespib; first compound 0.001 µM)	relative viability (Quizartinib + Luminespib; first compound 0.003162 µM)	relative viability (Quizartinib + Luminespib; first compound 0.01 µM)	relative viability (Quizartinib + Luminespib; first compound 0.03162 µM)	relative viability (Quizartinib + Luminespib; first compound 0.1 µM)	relative viability (Quizartinib + Olaparib; first compound 0.001 µM)	relative viability (Quizartinib + Olaparib; first compound 0.003162 µM)	relative viability (Quizartinib + Olaparib; first compound 0.01 µM)	relative viability (Quizartinib + Olaparib; first compound 0.03162 µM)	relative viability (Quizartinib + Olaparib; first compound 0.1 µM)	relative viability (YM155 + Pictilisib; first compound 0.002 µM)	relative viability (YM155 + Pictilisib; first compound 0.006325 µM)	relative viability (YM155 + Pictilisib; first compound 0.02 µM)	relative viability (YM155 + Pictilisib; first compound 0.06325 µM)	relative viability (YM155 + AZD7762; first compound 0.002 µM)	relative viability (YM155 + AZD7762; first compound 0.006325 µM)	relative viability (YM155 + AZD7762; first compound 0.02 µM)	relative viability (YM155 + AZD7762; first compound 0.06325 µM)
HCC-366						0.324	0.369	0.332	0.328	0.389	0.376	0.124	0.125	0.134	0.315	0.28	0.327	0.273
IA-LM						0.908	0.796	0.851	0.75	0.74	0.312	0.266	0.367	0.141				
NCI-H520	0.232	0.201	0.207	0.333	0.255		0.308	0.367	0.352	0.29	0.236	0.298	0.255	0.293				
NCI-H522	1.11	1.07	0.892	1.1	1.47	0.61	0.764	0.716	0.6	0.783					0.699	0.854	0.961	0.991
NCI-H661	0.921	0.899	0.929	0.905	0.9	0.727	0.712	0.751	0.733	0.723	0.385	0.422	0.492	0.453				
NCI-H1299						0.949	0.967	0.987	0.995	0.984	0.653	0.803	0.845	0.516				
NCI-H1563	0.516	0.499	0.528	0.551	0.584						0.633	0.674	0.626	0.75				
NCI-H1623	0.38	0.564	0.455	0.57	0.408													
NCI-H1650	0.185	0.182	0.19		0.172	0.793	0.816	0.607		0.737	0.498	0.573	0.532	0.276				
NCI-H1703						0.488	0.306	0.2	0.166	0.307	0.26	0.232	0.248	0.116	0.0937	0.114	0.138	0.132
NCI-H2009	0.915	1.01	1.07	0.967	1.03	0.658	0.64	0.628	0.54	0.597	0.8	0.796	0.852	0.57				
NCI-H2023	0.73	0.664	0.759		0.624	0.418	0.422	0.513		0.417	0.237	0.23	0.25	0.112				
NCI-H2228	0.176	0.153	0.139	0.214	0.159	0.696	0.729	1.02	0.707	0.807	0.338	0.278	0.384	0.388				
NCI-H2342	0.807	0.752	0.696	0.759	0.762	0.415	0.474	0.51	0.388	0.395					0.612	0.379	0.515	0.383
SK-LU-1	0.205	0.191	0.212	0.201	0.232	0.462	0.469	0.458	0.467	0.432	0.606	0.496	0.483	0.545				
SK-MES-1	0.736	0.789	0.541		0.646	0.685	0.678	0.805		0.732	0.395	0.359	0.377	0.24				
SW 900	0.159	0.188		0.153	0.161	0.803	0.871	0.968	0.921	0.885						0.543	0.825	0.64
SW 1573	0.163	0.21	0.164		0.255	0.292	0.538	0.572		0.581	0.484	0.465	0.426	0.0949				
UMC-11		0.954	1.13	1.02	1.14	0.365	0.349	0.464	0.315	0.471	0.68	0.863	0.824	0.787				
